# Assay results from ChEMBL document CHEMBL4020765, “Synthesis and α-glucosidase inhibition activity of dihydroxy pyrrolidines” (Bioorg Med Chem Lett, 2017).
# Organism: Homo sapiens
# Test: Potency index, ratio of voglibose IC50 to compound IC50 for alpha glucosidase (unknown origin)
# Conditions: not given; call rule not given here
row,SMILES,Ratio IC50
1,Nc1ccc(CCC(=O)N2C[C@@H](O)[C@H](O)C2)cc1,3 to 4
2,O=C(CCc1ccc(O)cc1)Nc1ccc(CCC(=O)N2C[C@H](O)[C@@H](O)C2)cc1,3 to 4
3,O=C(CCc1ccc(O)cc1)Nc1ccc(CCC(=O)N2C[C@@H](O)[C@H](O)C2)cc1,3 to 4

# System: not listed separately
# Test: Inhibition of alpha glucosidase (unknown origin) using PNPG as substrate preincubated for 15 to 20 mins followed by substrate addition measured after 45 to 60 mins by spectrophotometric method
# Conditions: not given
row,SMILES,IC50
1,O=C(CCc1ccc(NS(=O)(=O)c2ccc(F)cc2)cc1)N1C[C@@H](O)[C@H](O)C1,Active
2,O=C(CCc1ccc([N+](=O)[O-])cc1)N1C[C@@H](O)[C@H](O)C1,Not Active
3,O=C(CCc1ccc(NS(=O)(=O)c2ccc(F)cc2)cc1)N1C[C@H](O)[C@@H](O)C1,Active
4,O=C(CCc1ccc(C(F)(F)F)cc1)Nc1ccc(CCC(=O)N2C[C@H](O)[C@@H](O)C2)cc1,Not Active
5,O=C(/C=C/c1ccsc1)N1C[C@@H](O)[C@H](O)C1,Not Active
6,O=C(CCc1ccc(F)cc1)Nc1ccc(CCC(=O)N2C[C@@H](O)[C@H](O)C2)cc1,Not Active
7,O=C(/C=C/c1ccccc1C(F)(F)F)N1C[C@@H](O)[C@H](O)C1,Active
8,O=C(CCc1ccccc1F)N1C[C@H](O)[C@@H](O)C1,Not Active
9,CC(C)(C)OC(=O)Nc1ccc(CCC(=O)N2C[C@@H](O)[C@H](O)C2)cc1,Not Active
10,O=C(CCc1ccc(F)cc1)Nc1ccc(CCC(=O)N2C[C@H](O)[C@@H](O)C2)cc1,Not Active
11,O=S(=O)(c1ccc(OC(F)(F)F)cc1)N1C[C@@H](O)[C@H](O)C1,Active
12,O=C(/C=C/c1ccc(C(F)(F)F)cc1)Nc1ccc(CCC(=O)N2C[C@H](O)[C@@H](O)C2)cc1,Not Active
13,O=C(/C=C/c1ccc(C(F)(F)F)cc1)Nc1ccc(CCC(=O)N2C[C@@H](O)[C@H](O)C2)cc1,Not Active
14,O=C(/C=C/c1ccsc1)N1C[C@H](O)[C@@H](O)C1,Not Active
15,O=C(CCc1ccccc1)N1C[C@@H](O)[C@H](O)C1,Not Active
16,O=C(CCc1ccccc1)N1C[C@H](O)[C@@H](O)C1,Not Active
17,CC(C)(C)OC(=O)Nc1ccc(CCC(=O)N2C[C@H](O)[C@@H](O)C2)cc1,Not Active
18,O=C(CCc1ccc(C(F)(F)F)cc1)Nc1ccc(CCC(=O)N2C[C@@H](O)[C@H](O)C2)cc1,Not Active
19,O=C(/C=C/c1ccc(O)cc1)Nc1ccc(CCC(=O)N2C[C@@H](O)[C@H](O)C2)cc1,Not Active
20,O=C(CCc1ccccc1F)N1C[C@@H](O)[C@H](O)C1,Not Active
21,O=C(/C=C/c1ccc(O)cc1)Nc1ccc(CCC(=O)N2C[C@H](O)[C@@H](O)C2)cc1,Not Active

# Same assay, conditions: read-out: IC50
row,SMILES,IC50 [µM]
1,O=C(CCc1ccsc1)N1C[C@@H](O)[C@H](O)C1,723
2,O=C(CCc1ccsc1)N1C[C@H](O)[C@@H](O)C1,796
3,O=C(CCc1ccc(C(F)(F)F)cc1)N1C[C@H](O)[C@@H](O)C1,863
4,Nc1ccc(CCC(=O)N2C[C@@H](O)[C@H](O)C2)cc1,108
5,Cn1cc(C(=O)N2C[C@H](O)[C@@H](O)C2)c2ccccc21,594
6,O=C(CCc1ccccc1C(F)(F)F)N1C[C@H](O)[C@@H](O)C1,124
7,O=C(CCc1ccc(O)cc1)N1C[C@H](O)[C@@H](O)C1,602
8,O=C(CCc1ccncc1)N1C[C@H](O)[C@@H](O)C1,943
9,O=C(/C=C/c1ccc(O)cc1)N1C[C@@H](O)[C@H](O)C1,546
10,O=C(CCc1ccc(O)cc1)Nc1ccc(CCC(=O)N2C[C@H](O)[C@@H](O)C2)cc1,98.5
11,Nc1ccc(CCC(=O)N2C[C@@H](O)[C@@H](O)C2)cc1,302
12,O=C(Nc1ccc(CCC(=O)N2C[C@H](O)[C@@H](O)C2)cc1)c1ccsc1,495
13,O=C(/C=C/c1ccccc1)N1C[C@H](O)[C@@H](O)C1,747
14,OCC(CO)N[C@H]1C[C@](O)(CO)[C@@H](O)[C@H](O)[C@H]1O [VOGLIBOSE],325
15,O=C(CCc1ccncc1)N1C[C@@H](O)[C@H](O)C1,966
16,O=C(CCc1ccc(O)cc1)N1C[C@@H](O)[C@H](O)C1,657
17,O=C(/C=C/c1ccc(F)cc1)Nc1ccc(CCC(=O)N2C[C@H](O)[C@@H](O)C2)cc1,200
18,O=C(/C=C/c1ccccc1C(F)(F)F)N1C[C@H](O)[C@@H](O)C1,656
19,O=C(CCc1ccccc1C(F)(F)F)N1C[C@@H](O)[C@H](O)C1,272
20,O=C(CCc1ccc(NS(=O)(=O)c2ccc(C(F)(F)F)cc2)cc1)N1C[C@@H](O)[C@H](O)C1,429
21,O=C(/C=C/c1ccc(C(F)(F)F)cc1)N1C[C@H](O)[C@@H](O)C1,652
22,O=C(CCc1ccc(C(F)(F)F)cc1)N1C[C@@H](O)[C@@H](O)C1,886
23,O=C(CCc1ccc([N+](=O)[O-])cc1)N1C[C@H](O)[C@@H](O)C1,772
24,O=S(=O)(c1ccc(C(F)(F)F)cc1)N1C[C@H](O)[C@@H](O)C1,497

row,SMILES,IC50 [µM]
1,O=C(Nc1ccc(CCC(=O)N2C[C@@H](O)[C@H](O)C2)cc1)c1ccsc1,474
2,O=C(/C=C/c1ccccc1F)N1C[C@H](O)[C@@H](O)C1,837
3,C[C@H]1O[C@H](O[C@H]2[C@H](O)[C@@H](O)[C@@H](O[C@H]3[C@H](O)[C@@H](O)C(O)O[C@@H]3CO)O[C@@H]2CO)[C@H](O)[C@@H](O)[C@@H]1N[C@H]1C=C(CO)[C@@H](O)[C@H](O)[C@H]1O (stereo not given in full) [ACARBOSE],360
4,O=C(/C=C/c1ccc(C(F)(F)F)cc1)N1C[C@@H](O)[C@@H](O)C1,638
5,O=S(=O)(c1ccc(OC(F)(F)F)cc1)N1C[C@H](O)[C@@H](O)C1,228
6,O=S(=O)(c1ccc(O)cc1)N1C[C@@H](O)[C@H](O)C1,607
7,Cn1c(C(=O)N2C[C@@H](O)[C@H](O)C2)cc2ccccc21,539
8,Nc1ccc(CCC(=O)Nc2ccc(CCC(=O)N3C[C@H](O)[C@@H](O)C3)cc2)cc1,262
9,Cn1cc(C(=O)N2C[C@@H](O)[C@H](O)C2)c2ccccc21,531
10,O=C(/C=C/c1ccc(F)cc1)Nc1ccc(CCC(=O)N2C[C@@H](O)[C@H](O)C2)cc1,111
11,O=C(/C=C/c1ccccc1)N1C[C@@H](O)[C@H](O)C1,822
12,Nc1ccc(CCC(=O)N2C[C@H](O)[C@@H](O)C2)cc1,185
13,O=C(CCc1ccc(O)cc1)Nc1ccc(CCC(=O)N2C[C@@H](O)[C@H](O)C2)cc1,104
14,O=C(CCc1ccc(N(S(=O)(=O)c2ccc(C(F)(F)F)cc2)S(=O)(=O)c2ccc(C(F)(F)F)cc2)cc1)N1C[C@H](O)[C@@H](O)C1,114
15,OCCN1C[C@H](O)[C@@H](O)[C@H](O)[C@H]1CO [MIGLITOL],462
16,O=C(CCc1ccc(C(F)(F)F)cc1)N1C[C@@H](O)[C@H](O)C1,856
17,O=C(/C=C/c1ccc(C(F)(F)F)cc1)N1C[C@@H](O)[C@H](O)C1,605
18,CC(C)(C)OC(=O)Nc1ccc(CCC(=O)N2C[C@@H](O)[C@@H](O)C2)cc1,556
19,Nc1ccc(CCC(=O)Nc2ccc(CCC(=O)N3C[C@@H](O)[C@H](O)C3)cc2)cc1,259
20,O=S(=O)(c1ccc(O)cc1)N1C[C@H](O)[C@@H](O)C1,453
21,O=C(/C=C/c1ccccc1F)N1C[C@@H](O)[C@H](O)C1,862
22,O=C(CCc1ccc(NS(=O)(=O)c2ccc(C(F)(F)F)cc2)cc1)N1C[C@H](O)[C@@H](O)C1,463
23,Cn1c(C(=O)N2C[C@H](O)[C@@H](O)C2)cc2ccccc21,556
24,O=C(/C=C/c1ccc(O)cc1)N1C[C@H](O)[C@@H](O)C1,506

# Target: not listed separately
# Test: Inhibition of alpha glucosidase (unknown origin) using PNPG as substrate preincubated for 10 mins followed by substrate addition measured after 30 mins
# Parameters: species or system Homo sapiens
# Conditions: not given
row,SMILES,IC50 [µM]
1,O=C1C=C[C@H](O)N1C(=O)CCc1ccccc1,7820
2,CO[C@H]1C=CC(=O)N1C(=O)CCc1ccccc1,430

# Organism: Homo sapiens
# Test: Potency index, ratio of acarbose IC50 to compound IC50 for alpha glucosidase (unknown origin)
# Conditions: not given
row,SMILES,Ratio IC50
1,Nc1ccc(CCC(=O)N2C[C@@H](O)[C@H](O)C2)cc1,3 to 4
2,O=C(CCc1ccc(O)cc1)Nc1ccc(CCC(=O)N2C[C@H](O)[C@@H](O)C2)cc1,3 to 4
3,O=C(CCc1ccc(O)cc1)Nc1ccc(CCC(=O)N2C[C@@H](O)[C@H](O)C2)cc1,3 to 4

# Organism: Homo sapiens
# Test: Potency index, ratio of miglitol IC50 to compound IC50 for alpha glucosidase (unknown origin)
# Conditions: not given
row,SMILES,Ratio IC50
1,Nc1ccc(CCC(=O)N2C[C@@H](O)[C@H](O)C2)cc1,3 to 4
2,O=C(CCc1ccc(O)cc1)Nc1ccc(CCC(=O)N2C[C@H](O)[C@@H](O)C2)cc1,3 to 4
3,O=C(CCc1ccc(O)cc1)Nc1ccc(CCC(=O)N2C[C@@H](O)[C@H](O)C2)cc1,3 to 4
